Reference: the supplement of paper PMC10307832

Tests used:
Assay in all cases: relative viability (nuclei count vs DMSO), 5 days (fraction); higher = more cells survive
A549 = test system: A549
Summary of the method: (§1)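 Medians of duplicate plates are given as relative viability. That measure is the nuclei count in treated wells divided by the count in vehicle wells. Counts were taken on 4× images of lung cancer cell lines in 1536-well plates, 5 days after pin-tool dosing the day after seeding with one drug alone or a fixed anchor-drug dose plus five library-drug doses (not always all listed) in √10 steps.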

ABC-1 = test system: ABC-1
Summary of the method: as §1

Calu-6 = test system: Calu-6
Summary of the method: as §1

EBC-1 = test system: EBC-1
Summary of the method: as §1

EKVX = test system: EKVX
Summary of the method: as §1

IA-LM = test system: IA-LM
Summary of the method: as §1

NCI-H1299 = test system: NCI-H1299
Summary of the method: as §1

NCI-H1623 = test system: NCI-H1623
Summary of the method: as §1

NCI-H1703 = test system: NCI-H1703
Summary of the method: as §1

NCI-H1993 = test system: NCI-H1993
Summary of the method: as §1

NCI-H2085 = test system: NCI-H2085
Summary of the method: as §1

NCI-H2126 = test system: NCI-H2126
Summary of the method: as §1

RERF-LC-KJ = test system: RERF-LC-KJ
Summary of the method: as §1

CCN(CC)CCCCNc1ncc2cc(-c3cc(OC)cc(OC)c3)c(NC(=O)NC(C)(C)C)nc2n1 + COc1cc2c(Oc3ccc(NC(=O)C4(C(=O)Nc5ccc(F)cc5)CC4)cc3F)ccnc2cc1OCCCN1CCOCC1 [Foretinib] (partner 0.25 µM)
relative viability (A549; first compound 0.01 µM): 1.07 | relative viability (A549; first compound 0.03162 µM): 0.841 | relative viability (A549; first compound 0.1 µM): 1.1 | relative viability (A549; first compound 0.3162 µM): 1.17 | relative viability (A549; first compound 1 µM): 0.758 | relative viability (ABC-1; first compound 0.01 µM): 1.22 | relative viability (ABC-1; first compound 0.03162 µM): 0.951 | relative viability (ABC-1; first compound 0.1 µM): 1.3 | relative viability (ABC-1; first compound 0.3162 µM): 1.14 | relative viability (ABC-1; first compound 1 µM): 1.16 | relative viability (Calu-6; first compound 0.01 µM): 0.97 | relative viability (Calu-6; first compound 0.03162 µM): 0.994 | relative viability (Calu-6; first compound 0.1 µM): 1.02 | relative viability (Calu-6; first compound 0.3162 µM): 0.902 | relative viability (Calu-6; first compound 1 µM): 0.86 | relative viability (EBC-1; first compound 0.01 µM): 0.103 | relative viability (EBC-1; first compound 0.03162 µM): 0.111 | relative viability (EBC-1; first compound 0.1 µM): 0.12 | relative viability (EBC-1; first compound 0.3162 µM): 0.104 | relative viability (EBC-1; first compound 1 µM): 0.106 | relative viability (EKVX; first compound 0.01 µM): 0.589 | relative viability (EKVX; first compound 0.03162 µM): 0.471 | relative viability (EKVX; first compound 0.1 µM): 0.781 | relative viability (EKVX; first compound 0.3162 µM): 0.949 | relative viability (EKVX; first compound 1 µM): 0.758 | relative viability (IA-LM; first compound 0.01 µM): 1.19 | relative viability (IA-LM; first compound 0.03162 µM): 1.33 | relative viability (IA-LM; first compound 0.1 µM): 1.17 | relative viability (IA-LM; first compound 0.3162 µM): 1.16 | relative viability (IA-LM; first compound 1 µM): 1.23 | relative viability (NCI-H1299; first compound 0.01 µM): 1.12 | relative viability (NCI-H1299; first compound 0.03162 µM): 1.1 | relative viability (NCI-H1299; first compound 0.1 µM): 1.16 | relative viability (NCI-H1299; first compound 0.3162 µM): 1.08 | relative viability (NCI-H1299; first compound 1 µM): 1.02 | relative viability (NCI-H1623; first compound 0.01 µM): 0.859 | relative viability (NCI-H1623; first compound 0.03162 µM): 0.674 | relative viability (NCI-H1623; first compound 0.1 µM): 0.876 | relative viability (NCI-H1623; first compound 0.3162 µM): 0.945 | relative viability (NCI-H1623; first compound 1 µM): 0.874 | relative viability (NCI-H1703; first compound 0.01 µM): 0.314 | relative viability (NCI-H1703; first compound 0.1 µM): 0.388 | relative viability (NCI-H1703; first compound 0.3162 µM): 0.308 | relative viability (NCI-H1703; first compound 1 µM): 0.373 | relative viability (NCI-H1993; first compound 0.01 µM): 0.751 | relative viability (NCI-H1993; first compound 0.03162 µM): 0.791 | relative viability (NCI-H1993; first compound 0.1 µM): 0.934 | relative viability (NCI-H1993; first compound 0.3162 µM): 0.917 | relative viability (NCI-H1993; first compound 1 µM): 0.714 | relative viability (NCI-H2085; first compound 0.01 µM): 0.968 | relative viability (NCI-H2085; first compound 0.03162 µM): 0.821 | relative viability (NCI-H2085; first compound 0.1 µM): 1 | relative viability (NCI-H2085; first compound 0.3162 µM): 0.897 | relative viability (NCI-H2085; first compound 1 µM): 0.866 | relative viability (NCI-H2126; first compound 0.01 µM): 1.37 | relative viability (NCI-H2126; first compound 0.03162 µM): 1.3 | relative viability (NCI-H2126; first compound 0.1 µM): 1.14 | relative viability (NCI-H2126; first compound 0.3162 µM): 1.22 | relative viability (NCI-H2126; first compound 1 µM): 1.11 | relative viability (RERF-LC-KJ; first compound 0.01 µM): 0.893 | relative viability (RERF-LC-KJ; first compound 0.03162 µM): 0.901 | relative viability (RERF-LC-KJ; first compound 0.1 µM): 0.871 | relative viability (RERF-LC-KJ; first compound 0.3162 µM): 0.872 | relative viability (RERF-LC-KJ; first compound 1 µM): 0.941

O=c1cc(-c2cccc3c2Sc2ccccc2S3)oc(N2CCOCC2)c1 + COc1cc2c(Oc3ccc(NC(=O)C4(C(=O)Nc5ccc(F)cc5)CC4)cc3F)ccnc2cc1OCCCN1CCOCC1 [Foretinib] (partner 0.25 µM)
relative viability (A549; first compound 0.08 µM): 1 | relative viability (A549; first compound 0.253 µM): 1.06 | relative viability (A549; first compound 0.8 µM): 1.15 | relative viability (A549; first compound 2.53 µM): 0.978 | relative viability (A549; first compound 8 µM): 1.03 | relative viability (ABC-1; first compound 0.08 µM): 1.25 | relative viability (ABC-1; first compound 0.253 µM): 1.17 | relative viability (ABC-1; first compound 0.8 µM): 1.2 | relative viability (ABC-1; first compound 2.53 µM): 1.04 | relative viability (ABC-1; first compound 8 µM): 1.31 | relative viability (Calu-6; first compound 0.08 µM): 0.916 | relative viability (Calu-6; first compound 0.253 µM): 0.963 | relative viability (Calu-6; first compound 0.8 µM): 0.932 | relative viability (Calu-6; first compound 2.53 µM): 0.867 | relative viability (Calu-6; first compound 8 µM): 0.799 | relative viability (EBC-1; first compound 0.08 µM): 0.106 | relative viability (EBC-1; first compound 0.253 µM): 0.0935 | relative viability (EBC-1; first compound 0.8 µM): 0.104 | relative viability (EBC-1; first compound 2.53 µM): 0.105 | relative viability (EBC-1; first compound 8 µM): 0.111 | relative viability (EKVX; first compound 0.08 µM): 0.785 | relative viability (EKVX; first compound 0.253 µM): 0.892 | relative viability (EKVX; first compound 0.8 µM): 0.751 | relative viability (EKVX; first compound 2.53 µM): 0.734 | relative viability (EKVX; first compound 8 µM): 1.33 | relative viability (IA-LM; first compound 0.08 µM): 1.45 | relative viability (IA-LM; first compound 0.253 µM): 1.33 | relative viability (IA-LM; first compound 0.8 µM): 1.32 | relative viability (IA-LM; first compound 2.53 µM): 1.04 | relative viability (IA-LM; first compound 8 µM): 1.23 | relative viability (NCI-H1299; first compound 0.08 µM): 1.09 | relative viability (NCI-H1299; first compound 0.253 µM): 1.13 | relative viability (NCI-H1299; first compound 0.8 µM): 1.15 | relative viability (NCI-H1299; first compound 2.53 µM): 1.09 | relative viability (NCI-H1299; first compound 8 µM): 1.1 | relative viability (NCI-H1623; first compound 0.08 µM): 0.834 | relative viability (NCI-H1623; first compound 0.253 µM): 0.865 | relative viability (NCI-H1623; first compound 0.8 µM): 0.765 | relative viability (NCI-H1623; first compound 2.53 µM): 0.866 | relative viability (NCI-H1623; first compound 8 µM): 0.917 | relative viability (NCI-H1703; first compound 0.08 µM): 0.348 | relative viability (NCI-H1703; first compound 0.253 µM): 0.421 | relative viability (NCI-H1703; first compound 0.8 µM): 0.273 | relative viability (NCI-H1703; first compound 2.53 µM): 0.321 | relative viability (NCI-H1703; first compound 8 µM): 0.334 | relative viability (NCI-H1993; first compound 0.08 µM): 0.705 | relative viability (NCI-H1993; first compound 0.253 µM): 0.796 | relative viability (NCI-H1993; first compound 0.8 µM): 0.586 | relative viability (NCI-H1993; first compound 2.53 µM): 0.75 | relative viability (NCI-H1993; first compound 8 µM): 0.68 | relative viability (NCI-H2085; first compound 0.08 µM): 0.907 | relative viability (NCI-H2085; first compound 0.253 µM): 1.21 | relative viability (NCI-H2085; first compound 0.8 µM): 0.975 | relative viability (NCI-H2085; first compound 2.53 µM): 0.771 | relative viability (NCI-H2085; first compound 8 µM): 0.845 | relative viability (NCI-H2126; first compound 0.08 µM): 1.22 | relative viability (NCI-H2126; first compound 0.253 µM): 1.39 | relative viability (NCI-H2126; first compound 0.8 µM): 1.02 | relative viability (NCI-H2126; first compound 2.53 µM): 1.03 | relative viability (NCI-H2126; first compound 8 µM): 0.994 | relative viability (RERF-LC-KJ; first compound 0.08 µM): 0.836 | relative viability (RERF-LC-KJ; first compound 0.253 µM): 0.952 | relative viability (RERF-LC-KJ; first compound 0.8 µM): 0.745 | relative viability (RERF-LC-KJ; first compound 2.53 µM): 0.995 | relative viability (RERF-LC-KJ; first compound 8 µM): 0.792
